Here are results for 29 compounds from patent US6777418B2, “Retinoid compounds (I)” (Syntex (U.S.A.) LLC, priority 2000, dated 2004).

Several values for one entry are separate records, joined by “and”; a condition that tells them apart may be missing. Equal entries are not always repeated.

Usually melting point stands for the temperature of the solid-liquid transition.

On to `CC1(C)CC(=O)C(C)(C)c2cc(Cn3cccn3)c(/C=C/c3ccc(C(=O)O)cc3)cc21` [Compound 133, 4-[(E)-2-(5,5,8,8-tetramethyl-3-pyrazol-1-ylmethyl-6-oxo-5,6,7,8-tetrahydro-naphthalen-2-yl)vinyl]-benzoic acid], for which the melting point was 233 to 233.5 °C.
Consider `CC1(C)CCC(C)(C)c2cc(Cn3cccn3)c(/C=C/c3ccc(C(=O)O)s3)cc21` [Compound 45, 5-[(E)-2-(5,5,8,8-tetramethyl-3-pyrazol-1-ylmethyl-5,6,7,8-tetrahydro-naphthalen-2-yl)vinyl]-thiophene-2-carboxylic acid], for which the melting point is 168 to 174 °C.
The compound `Cc1ccc(Cc2cc3c(cc2/C=C/c2ccc(C(=O)O)cc2)C(C)(C)CCC3(C)C)cc1` [Compound 42, 4-{(E)-2-[5,5,8,8-tetramethyl-3-(4-methylbenzyl)-5,6,7,8-tetrahydro-naphthalen-2-yl]vinyl}benzoic acid] came in with a melting point of 216.3 to 217.3 °C.
Consider `CC1(C)CCC(C)(C)c2cc(CCCn3cccn3)c(/C=C/c3ccc(C(=O)O)cc3)cc21` [Compound 30, 4-{(E)-2-[5,5,8,8-tetramethyl-3-(3-pyrazol-1-ylpropyl)-5,6,7,8-tetrahydro-naphthalen-2-yl]vinyl}benzoic acid], for which the melting point lay within 181.5 to 182.5 °C.
In the case of `CC1(C)CC(=O)C(C)(C)c2cc(/C=C/c3ccc(C(=O)O)cc3)c(Cn3cccn3)cc21` [Compound 144, (E)-4-[2-(3-(pyrazole-1-ylmethyl)-7-oxo-5,5,8,8-tetramethyl-5,6,7,8-tetrahydronaphthalene-2-yl)vinyl]benzoic acid], the melting point was 264.8 to 265.9 °C.
As to `CC1(C)CCC(C)(C)c2cc(-c3cccs3)c(/C=C/c3ccc(C(=O)O)cc3)cc21`, the melting point was 242.5 to 243.6 °C.
Regarding `CC1(C)CCC(C)(C)c2cc(Cc3ccc(F)cc3F)c(/C=C/c3ccc(C(=O)O)cc3)cc21` [Compound 43, 4-{(E)-2-[5,5,8,8-tetramethyl-3-(2,4-difluorobenzyl)-5,6,7,8-tetrahydro-naphthalen-2-yl]vinyl}benzoic acid], the melting point lay within 204.3 to 205.7 °C.
In turn, `CC1(C)CCC(C)(C)c2cc(CSCC(O)CO)c(/C=C/c3ccc(C(=O)O)cc3)cc21` (centres unmarked) [Compound 9] yielded a melting point of 174.8 to 175.9 °C.
The same measure for `CC1(C)CCC(C)(C)c2cc(Cc3cccs3)c(/C=C/c3ccc(C(=O)O)cc3)cc21` [Compound 44, 4-[(E)-2-(5,5,8,8-tetramethyl-3-thiophen-2ylmethyl-5,6,7,8-tetrahydro-naphthalen-2-yl)vinyl]benzoic acid]: 229.1 to 229.6 °C; for `CC1(C)CCC(C)(C)c2cc(-c3ccsc3)c(/C=C/c3ccc(C(=O)O)cc3)cc21`: 244.5 to 245.8 °C; for `CC1(C)CCC(C)(C)c2cc(CSC3CCCC3)c(/C=C/c3ccc(C(=O)O)cc3)cc21` [Compound 4]: 209.4 to 211.3 °C.
Take `CC1(C)CCC(C)(C)c2cc(CCCO)c(/C=C/c3ccc(C(=O)O)cc3)cc21` [Compound 12, 4-{(E)-2-[3-(3-hydroxypropyl)-5,5,8,8-tetramethyl-5,6,7,8-tetrahydro-naphthalen-2-yl]vinyl}benzoic acid]: the melting point lay within 212.8 to 213.2 °C.
As for `CCOCCCc1cc2c(cc1/C=C/c1ccc(C(=O)O)cc1)C(C)(C)CCC2(C)C` [Compound 10, 4-{(E)-2-[3-(3-ethoxypropyl)-5,8,8-tetramethyl-5,6,7,8-tetrahydro-naphthalen-2-yl]vinyl}benzoic acid], the figure is 169.4 to 173.3 °C; as for `Cc1nnc(SCCc2cc3c(cc2/C=C/c2ccc(C(=O)O)cc2)C(C)(C)CCC3(C)C)s1` [Compound 27, 4-((E)-2-{5,5,8,8-tetramethyl-3-[3-(5-methyl-[1,3,4]thiadizol-2ylsulfanyl)-ethyl]-5,6,7,8-tetrahydro-naphthalen-2-yl}vinyl)benzoic acid], 244.7 to 245.2 °C.
`CC1(C)CCC(C)(C)c2cc(Cn3cccn3)c(/C=C/c3ccc(C(=O)O)c(F)c3)cc21` [Compound 47, 2-Fluoro-4-[(E)-2-[5,5,8,8-tetramethyl-3-pyrazol-1-ylmethyl-5,6,7,8-tetrahydronaphthalen-2-yl)vinyl]benzoic acid] had a melting point of 177 to 179 °C.
`CC1(C)CCC(C)(C)c2cc(Cn3cccn3)c(/C=C/c3ccc(C(N)=O)cc3)cc21` [Compound 165, 4-[(E)-2-(5,5,8,8-tetramethyl-3-pyrzol-1-ylmethyl-5,6,7,8-tetrahydro-naphthalen-2-yl)vinyl]benzamide] returned a melting point of 248 to 249 °C.
As for `CC(C)SCc1cc2c(cc1/C=C/c1ccc(C(=O)O)cc1)C(C)(C)CCC2(C)C` [Compound 13], the figure is 208.6 to 210.8 °C; as for `CC1(C)c2cc(/C=C/c3ccc(C(=O)O)cc3)c(Cn3cccn3)cc2C(C)(C)[C@@H](O)[C@H]1O` (stereo in doubt) [Compound 148, 4-[(E)-2-(5,5,8,8-tetramethyl-3-pyrazol-1-ylmethyl-6,7-cis-dihydroxy-5,6,7,8-tetrahydro-naphthalen-2-yl)vinyl]-benzoic acid], 238.3 to 241.5 °C and 238.5 to 241.5 °C.
`CC1(C)CCC(C)(C)c2cc(CCc3nccs3)c(/C=C/c3ccc(C(=O)O)cc3)cc21` [Compound 40, 4-{(E)-2-[5,5,8,8-tetramethyl-3-(2-thiazol-2-yl-ethyl)-5,6,7,8-tetrahydro-naphthalen-2-yl)vinyl]benzoic acid]: the melting point was 215.8 to 217.5 °C.
The compound `Cc1nnc(SCCCc2cc3c(cc2/C=C/c2ccc(C(=O)O)cc2)C(C)(C)CCC3(C)C)s1` [Compound 28, 4-((E)-2-{5,5,8,8-Tetramethyl-3-[3-(5-methyl-[1,3,4]thiadiazol-2-ylsulfanyl)-propyl]-5,6,7,8-tetrahydro-naphthalen-2-yl}vinyl)benzoic acid] yielded a melting point of 144 to 145.3 °C.
As for `CC1(C)CCC(C)(C)c2cc(Cn3cccn3)c(/C=C/c3ccc(C(=O)N4CCCCC4)cc3)cc21` [Compound 166, 4-[(E)-2-(5,5,8,8-tetramethyl-3-pyrzol-1-ylmethyl-5,6,7,8-tetrahydro-naphthalen-2-yl)vinyl]benzoic acid piperidine amide], the melting point lay in the range of 171.6 to 172.5 °C.
Turning to `CC1(C)CC(O)C(C)(C)c2cc(Cn3cccn3)c(/C=C/c3ccc(C(=O)O)cc3)cc21` (centres unmarked) [Compound 55, 4-[(E)-2-(5,5,8,8-tetramethyl-3pyrazol-1-ylmethyl-6-hydroxy-5,6,7,8-tetrahydro-naphthalen-2-yl)vinyl]benzoic acid], the melting point fell in the range of 241.6 to 242 °C.
Regarding `Cn1cnnc1SCc1cc2c(cc1/C=C/c1ccc(C(=O)O)cc1)C(C)(C)CCC2(C)C` [Compound 22], the melting point fell in the range of 251.6 to 252.6 °C.
In turn, `CC1(C)CCC(C)(C)c2cc(CCn3cccn3)c(/C=C/c3ccc(C(=O)O)cc3)cc21` [Compound 29, 4-{(E)-2-[5,5,8,8-tetramethyl-3-(2-pyrazol-1-ylethyl)-5,6,7,8-tetrahydro-naphthalen-2-yl]vinyl}benzoic acid] had a melting point of 235.3 to 235.9 °C.
Regarding `CC1(C)CCC(C)(C)c2cc(CCc3ncccn3)c(/C=C/c3ccc(C(=O)O)cc3)cc21` [Compound 41], the melting point is 228 to 228.9 °C.
Consider `COCCOCc1cc2c(cc1/C=C/c1ccc(C(=O)O)cc1)C(C)(C)CCC2(C)C` [Compound 5], for which the melting point was in the range of 55.9 to 58.2 °C.
In turn, `Cc1nnc(SCc2cc3c(cc2/C=C/c2ccc(C(=O)O)cc2)C(C)(C)CCC3(C)C)s1` [Compound 23] yielded a melting point of 218.1 to 218.5 °C.
As for `CC1(C)CCC(C)(C)c2cc(Sc3ncccn3)c(/C=C/c3ccc(C(=O)O)cc3)cc21` [Compound 155, 4-{(E)-2-[5,5,8,8-Tetramethyl-3-(mercaptopyrmidin-2-yl)-5,6,7,8-tetrahydro-naphthalen-2-yl)vinyl]benzoic acid], the figure is 283 to 283.5 °C; as for `CC1(C)CC(O)C(C)(C)c2cc(/C=C/c3ccc(C(=O)O)cc3)c(Cn3cccn3)cc21` (centres unmarked) [Compound 137, (E)-4-[2-(3-(pyrazole-1-ylmethyl)-7-hydroxy-5,5,8,8-tetramethyl-5,6,7,8-tetrahydronaphthalene-2-yl)vinyl]benzoic acid], 247.6 to 248.4 °C.
